Values quoted from earlier work, collected in patent US20220403162A1, “POLYURETHANE COMPOSITIONS SALTED WITH BISBIGUANIDE” (Lubrizol Advanced Materials, Inc., priority 2019, published 2022).

solubility in water or alcohol (quoted from US 2004/0052831 A1)	SMILES	solubility in water (The Merck Index)
	N=C(NCCCCCCNC(=N)NC(=N)Nc1ccc(Cl)cc1)NC(=N)Nc1ccc(Cl)cc1.O=C(O)[C@H](O)[C@@H](O)[C@H](O)[C@H](O)CO.O=C(O)[C@H](O)[C@@H](O)[C@H](O)[C@H](O)CO [CHG, chlorhexidine digluconate]	at least 50%
not soluble	[H]/N=C(\N/C(=N/[H])NCCCCCCNC(=N)NC(=N)Nc1ccc(Cl)cc1)Nc1ccc(Cl)cc1 [Chlorhexidine, 1,6-bis(4-chloro-phenylbiguanido)hexane]	
